# Test results reported in US20130209515A1, “ANTI-INFECTIVE AND IMMUNOMODULATORY COMPOUNDS” (priority 2005, published 2013).
# Experiments:
# [1] = system: 4-hydroxy-2-alkylquinoline (HAQ) production; format: cell-based, Pseudomonas aeruginosa
# P. aeruginosa cells = format: cell-based, Pseudomonas aeruginosa; details: 3 mM 2AA
# PA14 = experiment: Neonatal mouse lung infection model, lung histopathology; format: in vivo, mice
# Experimental: We next assessed the morphological dynamics of PA14 infection in the presence of 2AA in a neonatal mouse lung infection model (Tang et al., Infection & Immunity 64:37-43, 1996), which is relevant to CF. A minimum inoculum of 1.5×10^5 PA14 cells/animal is 100% lethal in this model. Mice were treated with 2AA 4 days pre-infection, sacrificed at 24, 48, and 72 hr post-infection, and lung histopathology was assessed and compared to that of controls. PA14 infection alone produces rapidly developing inflammation that by 24 hr presents with red hepatization and development of lobular pneumonia. By 48 hours, the lung pathology includes most of the parenchyma with extensive formation of bacteria-filled necrotic foci (FIG. 12B). These observations are also consistent with our previous mortality studies using this lung model that indicate 100% mortality by 60 hr.
# [2] = probable ATP-binding component of ABC transporter
compound,measurement,setting,value
"CC(=O)c1ccccc1N [2AA, 2′-aminoacetophenone]",HHQ production,[1],no HHQ was produced
same,HQNO accumulation,[1],higher accumulation of HQNO
same,PQS production,[1],only a limited quantity of PQS was produced
same,"production of 3,4-dihydroxy-2-heptylquinoline (PQS)",[1],decreased
same,production of 4-hydroxy-2-heptylquinoline (HHQ),[1],decreased
same,production of 4-hydroxy-2-heptylquinoline N-oxide (HQNO),[1],enhanced
same,genes whose expression was altered more than 2 fold,P. aeruginosa cells; harvested at OD600 of 3.0,approximately 1250 genes
same,genes downregulated,P. aeruginosa cells; more than 2 fold,1056 genes
same,genes upregulated,P. aeruginosa cells; more than 2 fold,199 genes
same,FOLD CHANGE PA3569,P. aeruginosa cells; 3-hydroxyisobutyrate dehydrogenase mmsB,−2.6 fold
same,FOLD CHANGE PA0999,P. aeruginosa cells; 3-oxoacyl-[acyl-carrier-protein] synthase III pqsD,−5.2 fold
same,FOLD CHANGE PA2570,P. aeruginosa cells; PA-I galactophilic lectin,−4.5 fold
same,FOLD CHANGE PA1001,"P. aeruginosa cells; anthranilate synthase component I, phnA",−6.2 fold
same,FOLD CHANGE PA1002,"P. aeruginosa cells; anthranilate synthase component II, phnB",−4.9 fold
same,FOLD CHANGE PA0905,P. aeruginosa cells; carbon storage regulator csrA,−2.7 fold
same,FOLD CHANGE PA1457,P. aeruginosa cells; chemotaxis protein CheZ,−2.1 fold
same,FOLD CHANGE PA2300,P. aeruginosa cells; chitinase,−3.2 fold
same,FOLD CHANGE PA0122,P. aeruginosa cells; conserved hypothetical protein,−3.4 fold
same,FOLD CHANGE PA0567,P. aeruginosa cells; conserved hypothetical protein,−3.0 fold
same,FOLD CHANGE PA1914,P. aeruginosa cells; conserved hypothetical protein,−26.3 fold
same,FOLD CHANGE PA2754,P. aeruginosa cells; conserved hypothetical protein,−2.0 fold
same,FOLD CHANGE PA4739,P. aeruginosa cells; conserved hypothetical protein,−3.7 fold
same,FOLD CHANGE PA3105,P. aeruginosa cells; general secretion pathway protein D,−2.2 fold
same,FOLD CHANGE PA3101,P. aeruginosa cells; general secretion pathway protein G,−3.4 fold
same,FOLD CHANGE PA3100,P. aeruginosa cells; general secretion pathway protein H,−2.1 fold
same,FOLD CHANGE PA3099,P. aeruginosa cells; general secretion pathway protein I,−2.2 fold
same,FOLD CHANGE PA3098,P. aeruginosa cells; general secretion pathway protein J,−2.2 fold
same,FOLD CHANGE PA3096,P. aeruginosa cells; general secretion pathway protein L,−2.8 fold
same,FOLD CHANGE PA3195,P. aeruginosa cells; glyceraldehyde 3-phosphate dehydrogenase,−3.2 fold
same,FOLD CHANGE PA3126,P. aeruginosa cells; heat-shock protein IbpA,−2.5 fold
same,FOLD CHANGE PA2194,P. aeruginosa cells; hydrogen cyanide synthase HcnB,−3.5 fold
same,FOLD CHANGE PA2195,P. aeruginosa cells; hydrogen cyanide synthase HcnC,−2.9 fold
same,FOLD CHANGE PA4205,P. aeruginosa cells; hypothetical protein MexG,−6.1 fold
same,FOLD CHANGE PA0997,P. aeruginosa cells; hypothetical protein pqsB,−4.6 fold
same,FOLD CHANGE PA0998,P. aeruginosa cells; hypothetical protein pqsC,−5.4 fold
same,FOLD CHANGE PA1000,P. aeruginosa cells; hypothetical protein pqsE,−4.3 fold
same,FOLD CHANGE PA1216,P. aeruginosa cells; hypothetical protein,−2.7 fold
same,FOLD CHANGE PA1852,P. aeruginosa cells; hypothetical protein,−2.3 fold
same,FOLD CHANGE PA2031,P. aeruginosa cells; hypothetical protein,−2.0 fold
same,FOLD CHANGE PA2134,P. aeruginosa cells; hypothetical protein,−2.5 fold
same,FOLD CHANGE PA2172,P. aeruginosa cells; hypothetical protein,−2.4 fold
same,FOLD CHANGE PA2173,P. aeruginosa cells; hypothetical protein,−2.3 fold
same,FOLD CHANGE PA2274,P. aeruginosa cells; hypothetical protein,−3.7 fold
same,FOLD CHANGE PA2328,P. aeruginosa cells; hypothetical protein,−4.5 fold
same,FOLD CHANGE PA2330,P. aeruginosa cells; hypothetical protein,−11.7 fold
same,FOLD CHANGE PA2331,P. aeruginosa cells; hypothetical protein,−10.9 fold
same,FOLD CHANGE PA2486,P. aeruginosa cells; hypothetical protein,−2.3 fold
same,FOLD CHANGE PA3031,P. aeruginosa cells; hypothetical protein,−3.1 fold
same,FOLD CHANGE PA3370,P. aeruginosa cells; hypothetical protein,−2.2 fold
same,FOLD CHANGE PA3371,P. aeruginosa cells; hypothetical protein,−2.1 fold
same,FOLD CHANGE PA3691,P. aeruginosa cells; hypothetical protein,−7.0 fold
same,FOLD CHANGE PA4917,P. aeruginosa cells; hypothetical protein,−2.1 fold
same,FOLD CHANGE PA3570,P. aeruginosa cells; methylmalonate-semialdehyde dehydrogenase,−2.9 fold
same,FOLD CHANGE PA4876,P. aeruginosa cells; osmotically inducible lipoprotein OsmE,−2.6 fold
same,FOLD CHANGE PA3186,P. aeruginosa cells; outer membrane porin OprB precursor,−2.2 fold
same,FOLD CHANGE PA1901,P. aeruginosa cells; phenazine biosynthesis protein PhzC,−3.4 fold
same,FOLD CHANGE PA1902,P. aeruginosa cells; phenazine biosynthesis protein PhzD,−3.4 fold
same,FOLD CHANGE PA1903,P. aeruginosa cells; phenazine biosynthesis protein PhzE,−3.1 fold
same,FOLD CHANGE PA2329,P. aeruginosa cells; [2],−9.8 fold
same,FOLD CHANGE PA3187,P. aeruginosa cells; [2],−2.6 fold
same,FOLD CHANGE PA4217,P. aeruginosa cells; probable FAD-dependent monooxygenase phzS1,−5.4 fold
same,FOLD CHANGE PA4209,P. aeruginosa cells; probable O-methyltransferase phzM,−2.4 fold
same,FOLD CHANGE PA4206,P. aeruginosa cells; probable RND efflux membrane fusion protein precursor mexH,−5.9 fold
same,FOLD CHANGE PA4207,P. aeruginosa cells; probable RND efflux transporter mexI,−7.5 fold
same,FOLD CHANGE PA2069,P. aeruginosa cells; probable carbamoyl transferase,−2.5 fold
same,FOLD CHANGE PA0996,P. aeruginosa cells; probable coenzyme A ligase pqsA,−3.0 fold
same,FOLD CHANGE PA2204,P. aeruginosa cells; probable component of ABC transporter,−3.1 fold
same,FOLD CHANGE PA2067,P. aeruginosa cells; probable hydrolase,−2.5 fold
same,FOLD CHANGE PA3812,P. aeruginosa cells; probable iron-binding protein IscA,−5.9 fold
same,FOLD CHANGE PA3813,P. aeruginosa cells; probable iron-binding protein IscU,−6.7 fold
same,FOLD CHANGE PA4208,"P. aeruginosa cells; probable outer membrane efflux protein precursor, OpmD",−6.8 fold
same,FOLD CHANGE PA3692,P. aeruginosa cells; probable outer membrane protein,−4.7 fold
same,FOLD CHANGE PA3189,P. aeruginosa cells; probable permease of ABC sugar transporter,−2.0 fold
same,FOLD CHANGE PA2327,P. aeruginosa cells; probable permease of ABC transporter,−4.9 fold
same,FOLD CHANGE PA4210,P. aeruginosa cells; probable phenazine biosynthesis protein phzA1,−3.3 fold
same,FOLD CHANGE PA4211,P. aeruginosa cells; probable phenazine biosynthesis protein phzB1,−2.9 fold
same,FOLD CHANGE PA1904,P. aeruginosa cells; probable phenazine biosynthesis protein,−3.6 fold
same,FOLD CHANGE PA1905,P. aeruginosa cells; probable pyridoxamine 5′-phosphate oxidase,−3.4 fold
same,FOLD CHANGE PA4218,P. aeruginosa cells; probable transporter,−5.3 fold
same,FOLD CHANGE PA0355,P. aeruginosa cells; protease pfpI,−2.7 fold
same,FOLD CHANGE PA1456,P. aeruginosa cells; two-component response regulator CheY,−2.3 fold
same,development of lung inflammation in response to PA14 infection,PA14; 2AA 4 days pre-infection,greatly delayed rates of development of inflammation
same,lung histopathology,"PA14; PA14 infection 4 days post-2AA treatment, 48 hours (FIG. 12C)",Slight peribronchial infiltrate of inflammatory cells is present at 48 hours but no significant interstitial involvement
